From PubChem BioAssay AID328 (DTP/NCI, 2004) come the findings set out here.

Toxic doses and inconclusive results are not listed.

This assay concerns BDF1 mice, P388 leukemia ip, median survival T/C. The assay can be described thus: NCI In Vivo Anticancer Drug Screen. Data for tumor model P388 Leukemia (intraperitoneal) in B6D2F1 (BDF1) mice. The note with it: endpoint: median survival time, higher = longer survival. Put shortly: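 Compound-treated tumour-bearing mice were compared with vehicle-treated controls. Survival was recorded, and the value is the treated-group measurement divided by the control-group measurement (T/C).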

The mark [1] stands for this setting: dose: 50.0 mg/kg/injection, schedule: Q04DX003 (ip), vehicle: saline with Tween-80.
The mark [2] stands for this setting: dose: 100.0 mg/kg/injection, schedule: Q04DX003 (ip), vehicle: saline with Tween-80.

`COc1ccc2c(Nc3ccc(NS(C)(=O)=O)cc3)c3ccccc3nc2c1`: the T/C (dose: 0.66 mg/kg/injection, schedule: Q01DX009 (ip), vehicle: saline with Tween-80) is 169 % of control; the T/C (dose: 1.0 mg/kg/injection, schedule: Q01DX009 (ip), vehicle: saline with Tween-80) is 194 % of control; the T/C (dose: 1.5 mg/kg/injection, schedule: Q01DX009 (ip), vehicle: saline with Tween-80) is 201 % of control; the T/C (dose: 2.66 mg/kg/injection, schedule: Q04DX003 (ip), vehicle: saline with Tween-80) is 150 % of control; the T/C (dose: 4.0 mg/kg/injection, schedule: Q04DX003 (ip), vehicle: saline with Tween-80) is 163 % of control; the T/C (dose: 6.0 mg/kg/injection, schedule: Q04DX003 (ip), vehicle: saline with Tween-80) was 172 % of control. Also, the T/C (dose: 9.0 mg/kg/injection, schedule: Q04DX003 (ip), vehicle: saline with Tween-80) was 168 % of control; the T/C (dose: 22.0 mg/kg/injection, schedule: Q04DX003 (ip), vehicle: saline with Tween-80) was 200 % of control; the T/C (dose: 25.0 mg/kg/injection, schedule: Q04DX003 (ip), vehicle: saline) was 254 % of control; the T/C (dose: 33.0 mg/kg/injection, schedule: Q04DX003 (ip), vehicle: saline with Tween-80) was 227 % of control; the T/C under setting [1] is 231 % of control; the T/C (dose: 50.0 mg/kg/injection, schedule: Q04DX003 (ip), vehicle: saline) was 240 % of control. The T/C is 281 % of control (dose: 75.0 mg/kg/injection, schedule: Q04DX003 (ip), vehicle: saline with Tween-80) and 104 % of control (dose: 100.0 mg/kg/injection, schedule: Q04DX003 (ip), vehicle: saline).
Turning to `O=c1[nH]cc(I)cc1I`, the T/C by setting is: (dose: 200.0 mg/kg/injection, schedule: Q04DX003 (ip), vehicle: saline with Tween-80) 100 % of control; (dose: 400.0 mg/kg/injection, schedule: Q04DX003 (ip), vehicle: saline with Tween-80) 100 % of control.
Regarding `C#CCCCOC(=O)Nc1ccccc1`, the T/C by setting is: (dose: 50.0 mg/kg/injection, schedule: Q01DX009 (ip), vehicle: Klucel (hydroxypropylcellulose) (HPC)) 90 % of control; (dose: 100.0 mg/kg/injection, schedule: Q01DX009 (ip), vehicle: Klucel (hydroxypropylcellulose) (HPC)) 90 % of control.
Regarding `c1ccc2c(CNC3CCCCC3)c[nH]c2c1`, the T/C by setting is: (dose: 100.0 mg/kg/injection, schedule: Q04DX003 (ip), vehicle: Klucel (hydroxypropylcellulose) (HPC)) 95 % of control; (dose: 200.0 mg/kg/injection, schedule: Q04DX003 (ip), vehicle: Klucel (hydroxypropylcellulose) (HPC)) 90 % of control; (dose: 400.0 mg/kg/injection, schedule: Q04DX003 (ip), vehicle: Klucel (hydroxypropylcellulose) (HPC)) 90 % of control.
On to `Cc1cc(O)c(C(c2ccc(Cl)cc2)c2c(O)cc(C)[nH]c2=O)c(=O)[nH]1`, for which the T/C was 108 % of control (dose: 50.0 mg/kg/injection, schedule: Q01DX009 (ip), vehicle: saline with Tween-80); 108 % of control (dose: 100.0 mg/kg/injection, schedule: Q01DX009 (ip), vehicle: saline with Tween-80); 105 % of control (dose: 200.0 mg/kg/injection, schedule: Q01DX009 (ip), vehicle: saline with Tween-80).
For the molecule `CC(C)(C)NCC(CN(CC(CNC(C)(C)C)C(=O)c1ccccc1)C(C)(C)C)C(=O)c1ccccc1` (stereo not drawn), the T/C reads like this: (dose: 12.5 mg/kg/injection, schedule: Q04DX003 (ip), vehicle: Klucel (hydroxypropylcellulose) (HPC)) 104 % of control; (dose: 25.0 mg/kg/injection, schedule: Q04DX003 (ip), vehicle: Klucel (hydroxypropylcellulose) (HPC)) 104 % of control; (dose: 50.0 mg/kg/injection, schedule: Q04DX003 (ip), vehicle: Klucel (hydroxypropylcellulose) (HPC)) 112 % of control.
Consider `Cc1ccc(N2CCN(CCCN3CCN(c4ccc(Cl)cc4)CC3)CC2)cc1`, for which the T/C is 100 % of control (dose: 50.0 mg/kg/injection, schedule: Q04DX003 (ip), vehicle: saline sonified); 95 % of control (dose: 100.0 mg/kg/injection, schedule: Q04DX003 (ip), vehicle: saline sonified); 95 % of control (dose: 200.0 mg/kg/injection, schedule: Q04DX003 (ip), vehicle: saline sonified).
Regarding `Nc1ncnc2c1ncn2C(C=O)OC(C=O)CO` (stereo not drawn), the T/C (dose: 0.88 mg/kg/injection, schedule: Q01DX009 (ip), vehicle: saline) is 106 % of control; the T/C (dose: 1.0 mg/kg/injection, schedule: Q01DX009 (ip), vehicle: carboxymethylcellulose (CMC)) is 119 % of control; the T/C (dose: 1.33 mg/kg/injection, schedule: Q01DX009 (ip), vehicle: saline) is 116 % of control; the T/C (dose: 2.0 mg/kg/injection, schedule: Q01DX009 (ip), vehicle: saline) is 119 % of control; the T/C (dose: 2.5 mg/kg/injection, schedule: Q04DX003 (ip), vehicle: carboxymethylcellulose (CMC)) was 113 % of control; the T/C (dose: 3.3 mg/kg/injection, schedule: Q01DX009 (ip), vehicle: saline) was 171 % of control. Besides, the T/C runs as follows: (dose: 4.0 mg/kg/injection, schedule: Q01DX009 (ip), vehicle: carboxymethylcellulose (CMC)) 158 % of control; (dose: 5.0 mg/kg/injection, schedule: Q01DX009 (ip), vehicle: saline) 261 % of control; (dose: 5.0 mg/kg/injection, schedule: Q04DX003 (ip), vehicle: carboxymethylcellulose (CMC)) 122 % of control; (dose: 5.56 mg/kg/injection, schedule: Q01DX009 (ip), vehicle: saline) 150 % of control; (dose: 7.5 mg/kg/injection, schedule: Q01DX009 (ip), vehicle: saline) 152 % of control; (dose: 8.0 mg/kg/injection, schedule: Q01DX009 (ip), vehicle: carboxymethylcellulose (CMC)) 97 % of control. Moreover, the T/C (dose: 8.33 mg/kg/injection, schedule: Q01DX009 (ip), vehicle: saline) is 161 % of control; the T/C (dose: 10.0 mg/kg/injection, schedule: Q04DX003 (ip), vehicle: carboxymethylcellulose (CMC)) is 153 % of control; the T/C (dose: 12.5 mg/kg/injection, schedule: Q01DX009 (ip), vehicle: saline) was 209 % of control; the T/C (dose: 16.0 mg/kg/injection, schedule: Q01DX009 (ip), vehicle: carboxymethylcellulose (CMC)) was 184 % of control; the T/C (dose: 18.7 mg/kg/injection, schedule: Q01DX009 (ip), vehicle: saline) is 152 % of control; the T/C (dose: 20.0 mg/kg/injection, schedule: Q04DX003 (ip), vehicle: carboxymethylcellulose (CMC)) is 160 % of control. Besides, the T/C was 188 % of control (dose: 40.0 mg/kg/injection, schedule: Q04DX003 (ip), vehicle: carboxymethylcellulose (CMC)) and 179 % of control (dose: 80.0 mg/kg/injection, schedule: Q04DX003 (ip), vehicle: carboxymethylcellulose (CMC)).
Regarding `N=C(N)N1CCNc2ccccc2C1`, the T/C under setting [2] was 99 % of control.
Take `CCCNC(=O)OCc1c(COC(=O)NCCC)c(-c2ccc(Cl)c(Cl)c2)n2c1CCC2`: the T/C is, setting by setting: (dose: 25.0 mg/kg/injection, schedule: Q01DX009 (ip), vehicle: other) 151 % of control; (dose: 50.0 mg/kg/injection, schedule: Q01DX009 (ip), vehicle: other) 172 % of control.
In the case of `C=C(CN(CC(=C)C(=O)c1ccccc1)C(C)(C)C)C(=O)c1ccccc1`, the T/C is, setting by setting: (dose: 6.25 mg/kg/injection, schedule: Q01DX009 (ip), vehicle: saline with Tween-80) 106 % of control; (dose: 12.5 mg/kg/injection, schedule: Q01DX009 (ip), vehicle: saline with Tween-80) 111 % of control; (dose: 25.0 mg/kg/injection, schedule: Q01DX009 (ip), vehicle: saline with Tween-80) 103 % of control.
Regarding `Cn1cnc(C(N)=S)c1N`, the T/C by setting is: (dose: 75.0 mg/kg/injection, schedule: Q04DX003 (ip), vehicle: saline) 112 % of control; (dose: 100.0 mg/kg/injection, schedule: Q01DX001 (ip), vehicle: Klucel (hydroxypropylcellulose) (HPC)) 100 % of control; (dose: 150.0 mg/kg/injection, schedule: Q04DX003 (ip), vehicle: saline) 100 % of control; (dose: 200.0 mg/kg/injection, schedule: Q01DX001 (ip), vehicle: Klucel (hydroxypropylcellulose) (HPC)) 95 % of control; (dose: 300.0 mg/kg/injection, schedule: Q04DX003 (ip), vehicle: saline) 112 % of control; (dose: 400.0 mg/kg/injection, schedule: Q01DX001 (ip), vehicle: Klucel (hydroxypropylcellulose) (HPC)) 100 % of control.
Take `CC(NC1=NCCO1)c1cccc2ccccc12` (stereo not drawn): the T/C (dose: 100.0 mg/kg/injection, schedule: Q01DX001 (ip), vehicle: saline with Tween-80) was 91 % of control; the T/C (dose: 200.0 mg/kg/injection, schedule: Q01DX001 (ip), vehicle: saline with Tween-80) is 91 % of control; the T/C (dose: 400.0 mg/kg/injection, schedule: Q01DX001 (ip), vehicle: saline with Tween-80) is 91 % of control.
For `CCCCN(CCCC)CC(C)O` (stereo not drawn), the T/C runs as follows: (dose: 25.0 mg/kg/injection, schedule: Q04DX003 (ip), vehicle: saline with Tween-80) 100 % of control; under setting [1], 104 % of control; under setting [2], 100 % of control.
